Key:
Type in all cases: functional
[1] = test system: Haemophilus influenzae; test: Antimicrobial activity against Haemophilus influenzae by broth microdilution method
[2] = test system: Streptococcus pneumoniae; test: Antimicrobial activity against penicillin-intermediate Streptococcus pneumoniae by broth microdilution method
[3] = test system: Enterococcus faecalis; test: Antimicrobial activity against vancomycin-susceptible Enterococcus faecalis by broth microdilution method
[4] = test system: Streptococcus pneumoniae; test: Antimicrobial activity against penicillin-susceptible Streptococcus pneumoniae by broth microdilution method
[5] = test system: Streptococcus pneumoniae; test: Antimicrobial activity against penicillin-resistant Streptococcus pneumoniae by broth microdilution method
[6] = test system: Staphylococcus aureus; test: Antimicrobial activity against methicillin-susceptible Staphylococcus aureus by broth microdilution method
[7] = test system: Staphylococcus aureus; test: Antimicrobial activity against methicillin-resistant Staphylococcus aureus by broth microdilution method
[8] = test system: Streptococcus agalactiae; test: Antimicrobial activity against Streptococcus agalactiae by broth microdilution method
[9] = test system: Staphylococcus epidermidis; test: Antimicrobial activity against methicillin-resistant Staphylococcus epidermidis by broth microdilution method
[10] = test system: Enterococcus faecalis; test: Antimicrobial activity against vancomycin-resistant Enterococcus faecalis by broth microdilution method
[11] = test system: Enterococcus faecium; test: Antimicrobial activity against vancomycin-resistant Enterococcus faecium by broth microdilution method
[12] = test system: Enterococcus faecium; test: Antimicrobial activity against vancomycin-susceptible Enterococcus faecium by broth microdilution method
[13] = test system: Staphylococcus epidermidis; test: Antimicrobial activity against methicillin-susceptible Staphylococcus epidermidis by broth microdilution method
[14] = test system: Clostridioides difficile; test: Antimicrobial activity against Clostridium difficile by broth microdilution method
[15] = test system: Burkholderia cepacia; test: Antimicrobial activity against Burkholderia cepacia by broth microdilution method
[16] = test system: Serratia marcescens; test: Antimicrobial activity against Serratia marcescens by broth microdilution method
[17] = test system: Klebsiella pneumoniae; test: Antimicrobial activity against Klebsiella pneumoniae by broth microdilution method
[18] = test system: Proteus mirabilis; test: Antimicrobial activity against Proteus mirabilis by broth microdilution method
[19] = test system: Pseudomonas aeruginosa; test: Antimicrobial activity against Pseudomonas aeruginosa by broth microdilution method
[20] = test system: Escherichia coli; test: Antimicrobial activity against Escherichia coli by broth microdilution method
[21] = test system: Acinetobacter baumannii; test: Antimicrobial activity against Acinetobacter baumannii by broth microdilution method
[22] = test system: Klebsiella pneumoniae; test: Antimicrobial activity against ESBL-production Klebsiella pneumoniae by broth microdilution method
[23] = test system: Acinetobacter baumannii; test: Antimicrobial activity against multiple dug-resistant Acinetobacter baumannii by broth microdilution method

C[C@H]1COc2c(N3CCN(C)CC3)c(F)cc3c(=O)c(C(=O)O)cn1c23.C[C@H]1COc2c(N3CCN(C)CC3)c(F)cc3c(=O)c(C(=O)O)cn1c23.O [LEVOFLOXACIN]
0.08 µg/mL: MIC [1]
0.015 µg/mL: MIC50 [1]
0.06 µg/mL: MIC90 [1]

CC(=O)NC[C@H]1CN(c2ccc(N3CCOCC3)c(F)c2)C(=O)O1 [LINEZOLID]
1 µg/mL: MIC50 [2] | MIC90 [2] | MIC50 [4] | MIC50 [5] | MIC90 [5] | MIC [8] | MIC50 [8] | MIC [9] | MIC50 [9] | MIC50 [10] | MIC90 [10] | MIC50 [13]
4 µg/mL: MIC90 [6] | MIC90 [7] | MIC90 [12]
2 µg/mL: MIC50 [3] | MIC90 [3] | MIC90 [4] | MIC50 [6] | MIC50 [7] | MIC90 [8] | MIC90 [9] | MIC50 [11] | MIC90 [11] | MIC [12] | MIC50 [12] | MIC90 [13]

Cc1ncc([N+](=O)[O-])n1CCO [METRONIDAZOLE]
0.5 µg/mL: MIC90 [14]
0.12 µg/mL: MIC50 [14]

CN(C)c1cc(NC(=O)CNC(C)(C)C)c(O)c2c1C[C@H]1C[C@H]3[C@H](N(C)C)C(O)=C(C(N)=O)C(=O)[C@@]3(O)C(O)=C1C2=O [TIGECYCLINE]
0.12 µg/mL: MIC [20] | MIC50 [20]
1 µg/mL: MIC50 [17]
0.03 µg/mL: MIC50 [22]
2 µg/mL: MIC90 [16] | MIC90 [23]
> 2 µg/mL: MIC90 [22]
> 8 µg/mL: MIC50 [15] | MIC90 [15] | MIC90 [17] | MIC90 [21]
0.5 µg/mL: MIC50 [16] | MIC50 [18] | MIC50 [19] | MIC50 [23]
> 32 µg/mL: MIC90 [18] | MIC90 [19]
0.25 µg/mL: MIC90 [20] | MIC50 [21]

CN[C@H](CC(C)C)C(=O)N[C@H]1C(=O)N[C@@H](CC(N)=O)C(=O)N[C@H]2C(=O)N[C@H]3C(=O)N[C@H](C(=O)N[C@H](C(=O)O)c4cc(O)cc(O)c4-c4cc3ccc4O)[C@H](O)c3ccc(c(Cl)c3)Oc3cc2cc(c3O[C@@H]2O[C@H](CO)[C@@H](O)[C@H](O)[C@H]2O[C@H]2C[C@](C)(N)[C@H](O)[C@H](C)O2)Oc2ccc(cc2Cl)[C@H]1O [VANCOMYCIN]
> 64 µg/mL: MIC [10] | MIC50 [10] | MIC90 [10] | MIC50 [11] | MIC90 [11]
2 µg/mL: MIC90 [3] | MIC50 [9] | MIC90 [9] | MIC90 [13]
0.25 µg/mL: MIC [2] | MIC50 [2] | MIC90 [2] | MIC50 [4] | MIC90 [4] | MIC [5] | MIC50 [5] | MIC90 [5]
1 µg/mL: MIC50 [3] | MIC90 [6] | MIC90 [7] | MIC50 [8] | MIC90 [8] | MIC90 [12]
0.5 µg/mL: MIC50 [6] | MIC50 [7] | MIC50 [12]

GENTAMICIN
> 8 µg/mL: MIC90 [15] | MIC90 [21]
0.06 µg/mL: MIC50 [21]
> 32 µg/mL: MIC90 [19]
8 µg/mL: MIC90 [18]
2 µg/mL: MIC90 [17] | MIC50 [19]
4 µg/mL: MIC50 [16] | MIC90 [16] | MIC90 [23]
1 µg/mL: MIC50 [18] | MIC50 [20] | MIC90 [20] | MIC90 [22]
0.5 µg/mL: MIC50 [15] | MIC50 [17] | MIC50 [23]
0.25 µg/mL: MIC50 [22]
